Experimental data from patent US9936701B2, “Herbicidal compounds” (Syngenta Participations AG, priority 2013, dated 2018).

Key:
[1] = system: a variety of test species; assay: Pre-emergence herbicidal activity (glasshouse, sprayed one day after sowing, evaluated after 13 days); assay type: in vivo; set-up: key: 5=total damage to plant; 0=no damage to plant; conditions: application pre-emergence, rate 1000 g/Ha, scale 0-5
Outline: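 Damage rated 13 days post-treatment on a 0-5 scale, 5 meaning total plant damage. Pots were sprayed pre-emergence, one day after sowing, with an acetone/water-derived aqueous spray containing 0.5% Tween 20. Plants grew under 14 h light, 65% humidity, 24/16 °C, watered twice daily.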

[2] = system: a variety of test species; assay: Post-emergence herbicidal activity (glasshouse, sprayed after 8 days cultivation, evaluated after 13 days); assay type: in vivo; set-up: key: 5=total damage to plant; 0=no damage to plant; conditions: rate 1000 g/Ha, scale 0-5
Outline: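 Foliar application to 8-day-old plants using a 0.5% Tween 20 acetone/water carrier; phytotoxicity is scored visually from 0 to 5 after 13 days of growth at 24/16 °C day/night.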

Row | SMILES | Pre-emergence herbicidal damage score, ABUTH [1] | Pre-emergence herbicidal damage score, ALOMY [1] | Pre-emergence herbicidal damage score, AMARE [1] | Pre-emergence herbicidal damage score, ECHCG [1] | Pre-emergence herbicidal damage score, SETFA [1] | Pre-emergence herbicidal damage score, ZEAMX [1] | ABUTH (Abutilon theophrasti) damage score, application post-emergence [2] | ALOMY (Alopecurus myosuroides) damage score, application post-emergence [2] | AMARE (Amaranthus retroflexus) damage score, application post-emergence [2] | ECHCG (Echinochloa crus-galli) damage score, application post-emergence [2] | SETFA (Setaria faberi) damage score, application post-emergence [2] | ZEAMX (Zea mays) damage score, application post-emergence [2] | melting point
1 | CC1=C(Cl)C(=O)N(c2noc(C(C)(C)C)c2Cl)C1O (stereo not drawn) [A24] | 5 | 4 | 4 | 5 | 4 | 2 | 5 | 5 | 5 | 5 | 5 | 4 | 143 to 145 °C
2 | CC1=C(Cl)C(=O)N(c2cc(C3CCCCC3)on2)C1O (stereo not drawn) [A25] | 3 | 2 | 5 | 2 | 0 | 0 | 5 | 3 | 4 | 4 | 5 | 1 | 141 to 143 °C
3 | CC1=C(Cl)C(=O)N(c2cc(C3(C)CC3)on2)C1O (stereo not drawn) [A26] | 5 | 4 | 5 | 5 | 5 | 3 | 5 | 4 | 5 | 5 | 5 | 5 | 177 to 178 °C
4 | C=CCC(C)(C)c1cc(N2C(=O)C(Cl)=C(C)C2O)no1 (stereo not drawn) [A28] | 5 | 4 | 5 | 5 | 4 | 2 | 5 | 5 | 5 | 5 | 5 | 4 | 107 to 109 °C
5 | CCC(C)(C)c1cc(N2C(=O)C(Cl)=C(C)C2O)no1 (stereo not drawn) [A29] | 5 | 3 | 5 | 5 | 4 | 1 | 5 | 4 | 5 | 5 | 4 | 3 | 103 to 105 °C
6 | CC1=C(Cl)C(=O)N(c2cc(C(C)c3ccccc3)on2)C1O (stereo not drawn) [A30] | 2 | 2 | 4 | 1 | 1 | 1 | 5 | 3 | 5 | 5 | 4 | 2 | 118 to 120 °C
